# In patent US20230048366A1, “COMBINATION THERAPY FOR TREATING OR PREVENTING CANCER” (4D Pharma Research Limited, priority 2018, published 2023):
# How the values were obtained:
# RENCA tumour cells = assay: Antitumor activity, RENCA model (tumour volume); format: in vivo, mouse; settings: D18 and D22, compared to untreated and vehicle groups, FIG. 3B
# Procedure: Treatment schedule—The start of first dosing was considered as D0. On D0, non-engrafted mice were randomized according to their individual body weight into groups of 9 mice using Vivo Manager® software (Biosystemes, Couternon, France). On D0, the mice received vehicle (culture medium) or bacterial strain (2×10^8 in 200 μL, PO). On D14, all mice were engrafted with RENCA tumour cells injected SC into the ventral surface of the lower flank as described below. Treatment with anti-CTLA-4 (10 mg/kg, IP) and anti-PDL1 (clone 10F.9G2, 10 mg/kg) was initiated when tumours reached a volume of 50-70 mm3.
# Orthotopic induction of RENCA tumor cells in animals by SC injection—On D14, one million (1×10^6) RENCA tumor cells in 50 μL RPMI 1640 medium were transplanted via SC injection into the ventral surface of the lower flank of mice.
# Euthanasia—Each mouse was euthanized when it reached a humane endpoint as described in section below, or after a maximum of 6 weeks post start of dosing.
# Evaluation of tumour burden at euthanasia—At the time of termination, tumours were collected and their volume evaluated.
# Clinical monitoring—The length and width of the tumour was measured twice a week with callipers and the volume of the tumour was estimated by this formula [52]: […]
# immature dendritic cells = assay: Cytokine production in immature dendritic cells; format: cell-based; settings: MRX518 10^7/ml, LPS 100 ng/ml
# Procedure: This study tested the effect of the bacterial strain MRX518 alone and in combination with lipopolysaccharide (LPS) on cytokine production in immature dendritic cells.
# A monocyte population was isolated from peripheral blood mononuclear cells (PBMCs). The monocyte cells were subsequently differentiated into immature dendritic cells. The immature dendritic cells were plated out at 200,000 cells/well and incubated with MRX518 at a final concentration of 10^7/ml, with the optional addition of LPS at a final concentration of 100 ng/ml. The negative control involved incubating the cells with RPMI media alone and positive controls incubated the cells with LPS at a final concentration of 100 ng/ml. The cytokine content of the cells was then analysed.
# [1] = compared to the negative control, FIGS. 4a-d
Compound,tumour size (RENCA tumour cells),"level of IL-1β (immature dendritic cells; FIGS. 4b, 4d)",level of IL-6 (immature dendritic cells; [1]),level of TNF-α (immature dendritic cells; [1])
CC(=O)O[C@H]1C(=O)[C@@]2(C)[C@H]([C@H](OC(=O)c3ccccc3)[C@]3(O)C[C@H](OC(=O)[C@H](O)[C@@H](NC(=O)c4ccccc4)c4ccccc4)C(C)=C1C3(C)C)[C@]1(OC(C)=O)CO[C@@H]1C[C@@H]2O [Paclitaxel],(almost) complete reduction in tumour size,–,–,–
lipopolysaccharide [LPS],–,not IL-1β,increase,increase
